In brackets after ≈: the same amount, converted by molar mass. Residues, ends and D or L forms follow the SMILES beside them. *: point of attachment. X1 = CC1(C(=O)*)CCC2(C)CCC3(C)C(=CC(=O)C4C5(C)CCC(O)C(C)(C)C5CCC43C)C2C1
Columns and labels:
[1] = system: human breast MCF-7 cancer cell line; assay: MTT cytotoxicity assay, breast MCF-7 cancer cell line; assay type: cell-based; settings: for cytotoxicity percentage: MCF-7, 10 µg/mL; for IC50: Homo sapiens, MCF7, MTT, mean of three replicates, read-out: IC50 (µg/mL) ± SD MCF-7
Description: (§1) Accordingly, all the newly synthesized GA-based peptides except 1 and 6 were screened for their cytotoxicity against three different human cancer cell lines: MCF-7, HCT-116, and HepG-2 cell lines at different concentrations (10, 5, 2.5, 1.25, and 0.625 µg/mL).
(§2) Human breast MCF-7, colon HCT-116, and liver HepG-2 carcinoma cell line were taken from Vacsera (Giza, Egypt). The culture was retained in RPMI 1640 medium with 1% antibiotic–antimycotic mixture (25 μg/mL amphotericin B, 10,000 μg/mL streptomycin sulfate, and 10,000 U/mL potassium penicillin), 1% L-glutamine, and complemented by 10% heat inactivated fetal bovine serum. […] This experiment was carried out according to the reported MTT assay method, and the absorbance was measured at 595 nm.

[2] = system: human colon HCT-116 cancer cell line; assay: MTT cytotoxicity assay, colon HCT-116 cancer cell line; settings: for IC50: Homo sapiens, HCT-116, read-out: IC50 (µg/mL) ± SD HCT-116
Description: as §1, §2

[3] = system: human normal skin fibroblasts cell line BJ-1; assay: Cytotoxicity against normal skin fibroblasts BJ-1; assay type: cell-based; settings: BJ-1, 10 µg/mL
Description: The frequency and severity of side effects to normal cells at therapeutic levels is one of the most critical factors that distinguish different anticancer drugs from each other. Accordingly, the GA peptides 1–8 were furthermore screened for their cytotoxicity at 10 µg/mL against the human normal skin fibroblasts cell line BJ-1 to determine their safety upon normal cells (Figure 4).

[4] = system: Streptococcus pneumonia RCMB 010010; assay: Well diffusion assay, Streptococcus pneumonia; assay type: cell-based; settings: Streptococcus pneumonia RCMB 010010, well diffusion
Description: (§3) The newly synthesized peptides 1–8 (compound 6 was not tested) was evaluated for their antimicrobial activity of against three pathogenic Gram-positive bacteria (Staphylococcus aureus ATCC25923, Streptococcus pneumoniaRCMB 010010, and Micrococcus Luteus), three pathogenic Gram-negative bacteria viz. Escherichia coli ATCC25922, Pseudomonas aeruginosa ATCC7853, and Proteus vulgaris RCMB 010085, and the yeast Candida albicans using the well diffusion method. […] The obtained data were documented for each derivative as the average diameter of the inhibition zones (IZ) in mm for the bacterial or the yeast growth around the discs (Table 2). […] Although Micrococcus Luteus bacteria is a normal commensal of human skin and the upper respiratory tract, it acts as an opportunistic pathogen and has been associated with various diseases including meningitis, septic arthritis, and endocarditis. […] Antimicrobial activity of the tested chemical peptides was determined by the well diffusion method for pathogenic bacteria having Gram-positive bacteria (Staphylococcus aureus ATCC25923, Streptococcus pneumonia, and Micrococcus luteus) and Gram-negative bacteria (Escherichia coli ATCC25922, Pseudomonas aeruginosa ATCC7853, and Proteus sp.) and Candida albicans as human pathogen yeast using the well diffusion method.

[5] = system: Staphylococcus aureus ATCC25923; assay: Well diffusion assay, Staphylococcus aureus; assay type: cell-based
Description: as §3

Micrococcus Luteus = assay: Well diffusion assay, Micrococcus Luteus; assay type: cell-based
Description: as §3

[6] = system: Escherichia coli ATCC25922; assay: Well diffusion assay, Escherichia coli; assay type: cell-based
Description: as §3

[7] = system: Pseudomonas aeruginosa ATCC7853; assay: Well diffusion assay, Pseudomonas aeruginosa; assay type: cell-based
Description: as §3

[8] = system: Proteus vulgaris RCMB 010085; assay: Well diffusion assay, Proteus vulgaris; assay type: cell-based; settings: Proteus vulgaris RCMB 010085, well diffusion
Description: as §3

Candida albicans = assay: Well diffusion assay, Candida albicans; assay type: cell-based
Description: as §3

[9] = system: human liver cancer (HepG-2) cell line; assay: MTT cytotoxicity assay, liver HepG-2 cancer cell line; assay type: cell-based
Description: as §1, §2

Row | Structure (SMILES) | cytotoxicity percentage [1] | cytotoxicity percentage ([2]; HCT-116, 10 µg/mL) | cytotoxic effect on normal cells BJ-1 [3] | Diameter of Inhibition Zone (mm) [4] | Diameter of Inhibition Zone (mm) [5] | Diameter of Inhibition Zone (mm) (Micrococcus Luteus) | Diameter of Inhibition Zone (mm) [6] | Diameter of Inhibition Zone (mm) [7] | melting point | IC50 [1] | IC50 [2] | Diameter of Inhibition Zone (mm) [8] | Diameter of Inhibition Zone (mm) (Candida albicans) | cytotoxicity percentage ([2]; human, 10 µg/mL) | cytotoxicity percentage ([9]; HepG-2, 10 µg/mL) | IC50 ([9]; Homo sapiens, HepG2, MTT, mean of three replicates, read-out: IC50 (µg/mL) ± SD HepG-2)
1 | CCOC(=O)CNC(=O)CNC(=O)C1(C)CCC2(C)CCC3(C)C(=CC(=O)C4C5(C)CCC(O)C(C)(C)C5CCC43C)C2C1 (stereo not drawn) [Compound 1, Ethyl 2-(2-(10-Hydroxy-2,4a,6a,6b,9,9,12a-heptamethyl-13-oxo-1,2,3,4,4a,5,6,6a,6b,7,8,8a,9,10,11,12,12a,12b,13,14b-icosahydropicene-2-carboxamido)acetamido)acetate] | 65.3% | weak effect | 7% | 15 ± 0.16 mm | 15 ± 0.16 mm | 30 ± 0.21 mm | 20 ± 0.25 mm | 18 ± 0.15 mm | 160 to 162 °C |  |  |  |  |  |  | 
2 | CCCC(NC(=O)C(CC(C)C)NC(=O)OC(C)(C)C)C(=O)OC1CCC2(C)C(CCC3(C)C2C(=O)C=C2C4CC(C)(C(=O)NCC(=O)NCC(=O)OCC)CCC4(C)CCC23C)C1(C)C (stereo not drawn) [Compound 2, 11-(2-(2-Ethoxy-2-oxoethylamino)-2-oxoethylcarbamoyl)-4,4,6a,6b,8a,11,14b-heptamethyl-14-oxo-1,2,3,4,4a,5,6,6a,6b,7,8,8a,9,10,11,12,12a,14,14a,14b-icosahydropicen-3-yl 2-(2-(tert-Butoxycarbonylamino)-4-methylpentanamido)pentanoate] |  | 92.63% |  | 12 ± 0.82 mm | 17 ± 0.11 mm | 30 ± 0.13 mm | 18 ± 0.14 mm | 15 ± 0.25 mm | 169 to 171 °C | 7.7 ± 1.3 µg/mL (≈ 8.32 µM) | 70.3 ± 0.9 µg/mL (≈ 76 µM) |  |  |  |  | 
3 | CC1(C(=O)NCC(=O)NCC(=O)O)CCC2(C)CCC3(C)C(=CC(=O)C4C5(C)CCC(O)C(C)(C)C5CCC43C)C2C1 (stereo not drawn) [Compound 3, 2-(2-(10-Hydroxy-2,4a,6a,6b,9,9,12a-heptamethyl-13-oxo-1,2,3,4,4a,5,6,6a,6b,7,8,8a,9,10,11,12,12a,12b,13,14b-icosahydropicene-2-carboxamido)acetamido)acetic acid] |  | 97.66% | 2% | 17 ± 0.21 mm | 17 ± 0.32 mm | 30 ± 0.25 mm | 16 ± 0.31 mm | 15 ± 0.18 mm | 207 to 209 °C | 5.1 ± 0.7 µg/mL (≈ 8.72 µM) | 7.4 ± 0.4 µg/mL (≈ 12.7 µM) | 17 ± 0.17 mm | 12 ± 0.23 mm |  |  | 
4 | CCOC(=O)CNC(=O)CNC(=O)CNC(=O)CNC(=O)C1(C)CCC2(C)CCC3(C)C(=CC(=O)C4C5(C)CCC(O)C(C)(C)C5CCC43C)C2C1 (stereo not drawn) [Compound 4, Ethyl 1-(10-Hydroxy-2,4a,6a,6b,9,9,12a-heptamethyl-13-oxo-1,2,3,4,4a,5,6,6a,6b,7,8,8a,9,10,11,12,12a,12b,13,14b-icosahydropicen-2-yl)-1,4,7,10-tetraoxo-2,5,8,11-tetraazatridecan-13-oate] (X1-GGGG-OEt) |  |  |  | 11 ± 0.24 mm | 10 ± 0.13 mm | 29 ± 0.13 mm | 13 ± 0.15 mm | 13 ± 0.16 mm | 130 to 133 °C | 6.1 ± 0.4 µg/mL (≈ 8.39 µM) | 73 ± 1.4 µg/mL (≈ 100 µM) | 12 ± 0.23 mm | 15 ± 0.12 mm | 84.80% |  | 
5 | COC(=O)C(CC(C)C)NC(=O)CNC(=O)CNC(=O)C1(C)CCC2(C)CCC3(C)C(=CC(=O)C4C5(C)CCC(O)C(C)(C)C5CCC43C)C2C1 (stereo not drawn) [Compound 6, Methyl 2-(2-(2-(10-Hydroxy-2,4a,6a,6b,9,9,12a-heptamethyl-13-oxo-1,2,3,4,4a,5,6,6a,6b,7,8,8a,9,10,11,12,12a,12b,13,14b-icosahydropicene-2-carboxamido)acetamido)acetamido)-4-methylpentanoate] | weak cytotoxic effect | weak effect |  |  |  |  |  |  | 170 to 172 °C |  |  |  |  |  |  | 
6 | CC(C)CC(NC(=O)CNC(=O)CNC(=O)C1(C)CCC2(C)CCC3(C)C(=CC(=O)C4C5(C)CCC(O)C(C)(C)C5CCC43C)C2C1)C(=O)O (stereo not drawn) [Compound 7, 2-(2-(2-(10-Hydroxy-2,4a, 6a, 6b, 9,9, 12a-heptamethyl-13-oxo-1,2,3,4,4a, 5,6,6a, 6b, 7,8,8a, 9, 10, 11, 12, 12a, 12b, 13, 14b-icosahydropicene-2-carboxamido)acetamido)acetamido)-4-methylpentanoic Acid] |  | 98.06% |  |  |  | 30 ± 0.11 mm | 15 ± 0.21 mm | 13 ± 0.14 mm | 210 to 212 °C | 3.7 ± 0.2 µg/mL (≈ 5.3 µM) | 3 ± 1.1 µg/mL (≈ 4.3 µM) | 12 ± 0.14 mm |  |  | 96.76% | 3.3 ± 0.1 µg/mL (≈ 4.73 µM)
7 | COC(=O)C(CC(C)C)NC(=O)CNC(=O)CNC(=O)C1(C)CCC2(C)CCC3(C)C(=CC(=O)C4C5(C)CCC(OC(=O)CNC(=O)CNC(=O)OC(C)(C)C)C(C)(C)C5CCC43C)C2C1 (stereo not drawn) [Compound 8, Methyl 2-(2-(2-(10-(2-(2-(Tert-butoxycarbonylamino)acetamido)acetoxy)-2,4a,6a,6b,9,9,12a-heptamethyl-13-oxo-1,2,3,4,4a,5,6,6a,6b,7,8,8a,9,10,11,12,12a,12b,13,14b-icosahydropicene-2-carboxamido)acetamido)acetamido)-4-methylpentanoate] |  | 97.10% |  | 12 ± 0.22 mm | 13 ± 0.24 mm | 30 ± 0.17 mm | 15 ± 0.16 mm | 14 ± 0.16 mm |  | 6.9 ± 1.1 µg/mL (≈ 7.45 µM) | 60.7 ± 0.6 µg/mL (≈ 65.5 µM) |  |  |  |  | 
8 | CNC(C)C1CCC(N)C(OC2C(N)CC(N)C(OC3OCC(C)(O)C(NC)C3O)C2O)O1 (stereo not drawn) [GM, gentamicin, reference compound] |  |  |  | 27.2 ± 0.80 mm | 25.4 ± 0.18 mm | 24.4 ± 0.72 mm | 26.3 ± 0.15 mm | 24.41 ± 0.18 mm |  |  |  | 20.0 ± 0.30 mm |  |  |  | 
9 | CC(=O)N1CCN(c2ccc(OCC3COC(Cn4ccnc4)(c4ccc(Cl)cc4Cl)O3)cc2)CC1 (stereo not drawn) [KC, ketoconazole, reference compound] |  |  |  |  |  |  |  |  |  |  |  |  | 22.8 ± 0.10 mm |  |  | 
